# Source: patent US5922580A, “Non-reducing saccharide-forming enzyme, its preparation and uses” (priority 1992, dated 1999)
# Assays:
# [1] = Maillard reaction with glycine; assay type: physicochemical; conditions: for Coloration degree (480 nm): 1% glycine, 10% saccharide, 50 mM phosphate buffer pH 7.0, 100° C. for 90 min, absorbance in 1-cm cell; for Coloration degree relative to corresponding material maltooligosaccharide: Maillard reaction, 480 nm
# Method: As a control, maltotriose, maltotetraose, maltopentaose, maltohexaose and maltoheptaose as a material for the saccharide preparations were similarly treated as above, and measured their absorbances were measured at a wave length of 480 nm.
# [2] = test system: non-reducing saccharide-forming enzyme; assay type: biochemical, Rhizobium sp. M-11; conditions: for Percentage of newly-formed saccharide (P I to P V) in reaction product / Formation of novel saccharide from substrate: 20% substrate, 40° C., pH 7.0, 48 hours; for Percentage of newly-formed saccharide (P I to P V) in reaction product: 2 units per g substrate, HPLC; for Percentage of remaining substrate in reaction product: non-reducing saccharide-forming enzyme, 48 h, pH 7
# Method: An aqueous solution containing 20% glucose, maltose, maltotriose, maltotetraose, maltopentaose, maltohexaose or maltoheptaose as a substrate was prepared, and mixed with 2 units per g substrate, d.s.b., of the purified enzyme preparation obtained in Experiment 2, and the resultant mixture was subjected to an enzymatic reaction at 40° C. and pH 7.0 for 48 hours. The reaction mixture was desalted and analyzed on high-performance liquid chromatography (HPLC) using "Wakobeads WB-T-330 column", a product of Wako Pure Chemical Industries Ltd., Tokyo, Japan. The HPLC procedure was conducted at an ambient temperature and a flow rate of 0.5 ml/min of water as an eluent, and "RI-8012", a differential refractometer commercialized by Tosho Corporation, Tokyo, Japan, was used for analyzing reaction products.
# [3] = Reducing power by Somogyi-Nelson's method expressed as DE; assay type: physicochemical; conditions: for DE: high-purity saccharide preparations of Experiment 4
# Method: The reducing powders of these novel saccharides were determined on the Somogyi-Nelson's method and expressed by DE (dextrose equivalent).
# [4] = test system: 7-week old dd-strain mice; experiment: Acute toxicity test, oral; assay type: in vivo; conditions: for Death of mice: oral, highest possible doses
# [5] = test system: rat intestinal acetone powder; experiment: Hydrolysis by rat intestinal acetone powder; assay type: in vitro ADME; conditions: 50 mM maleate buffer pH 6.0, 37° C., 18 hours
# Method: (§1) The enzymatic reaction with the α-amylase was as follows: Dissolving 10 mg of a substrate in one ml of 50 mM phosphate buffer (pH 6.9), mixing the resultant solution with one unit of the α-amylase, and incubating the resultant mixture at 37° C. for 18 hours. The enzymatic reaction with the α-glucosidase was conducted under the same conditions as in the case of α-amylase except that 50 mM acetate buffer (pH 4.0) was used as a buffer. The enzymatic reaction with the rat intestinal acetone powder was carried out under the same conditions as in the case of α-amylase except that 50 mM maleate buffer (pH 6.0) was used as a buffer.
# β-amylase = β-amylase (Glycine max, UniProt P10538); experiment: Hydrolysis by β-amylase; assay type: biochemical; conditions: similarly as with glucoamylase
# β-amylase, sequence (P10538 whole entry, species assumed): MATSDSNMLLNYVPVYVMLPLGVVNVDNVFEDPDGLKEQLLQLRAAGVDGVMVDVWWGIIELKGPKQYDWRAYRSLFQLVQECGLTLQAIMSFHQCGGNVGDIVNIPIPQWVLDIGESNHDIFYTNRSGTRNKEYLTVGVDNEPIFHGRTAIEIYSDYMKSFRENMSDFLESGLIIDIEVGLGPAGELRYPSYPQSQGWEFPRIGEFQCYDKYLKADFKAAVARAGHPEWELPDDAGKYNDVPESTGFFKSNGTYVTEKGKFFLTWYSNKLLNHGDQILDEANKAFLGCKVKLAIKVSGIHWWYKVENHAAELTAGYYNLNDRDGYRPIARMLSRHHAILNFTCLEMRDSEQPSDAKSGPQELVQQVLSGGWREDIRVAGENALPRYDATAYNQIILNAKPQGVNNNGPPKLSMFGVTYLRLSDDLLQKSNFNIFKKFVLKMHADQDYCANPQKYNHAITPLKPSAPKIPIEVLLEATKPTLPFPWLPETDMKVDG
# [6] = biological target: T1, α-amylase specimen derived from pig pancreas (Sus scrofa, UniProt P00690); experiment: Hydrolysis by α-amylase; assay type: biochemical; design: Saccharide composition of hydrolysate: P I / Saccharide composition of hydrolysate: P II / Saccharide composition of hydrolysate: G3 (maltotriose) / Saccharide composition of hydrolysate: G2 (maltose) / Saccharide composition of hydrolysate: G1 (glucose): unit not given here; conditions: for Hydrolysis by α-amylase: conclusion from Table 6; for Saccharide composition of hydrolysate: G1 (glucose) / Saccharide composition of hydrolysate: G2 (maltose) / Saccharide composition of hydrolysate: G3 (maltotriose) / Saccharide composition of hydrolysate: P I / Saccharide composition of hydrolysate: P II: α-amylase, 10 mg/ml, pH 6.9, 37° C., 18 hours, HPLC
# T1 construct: purchased Sigma Chemical Company, St. Louis, USA; host or cells: pig pancreas
# T1 sequence (P00690 16-511): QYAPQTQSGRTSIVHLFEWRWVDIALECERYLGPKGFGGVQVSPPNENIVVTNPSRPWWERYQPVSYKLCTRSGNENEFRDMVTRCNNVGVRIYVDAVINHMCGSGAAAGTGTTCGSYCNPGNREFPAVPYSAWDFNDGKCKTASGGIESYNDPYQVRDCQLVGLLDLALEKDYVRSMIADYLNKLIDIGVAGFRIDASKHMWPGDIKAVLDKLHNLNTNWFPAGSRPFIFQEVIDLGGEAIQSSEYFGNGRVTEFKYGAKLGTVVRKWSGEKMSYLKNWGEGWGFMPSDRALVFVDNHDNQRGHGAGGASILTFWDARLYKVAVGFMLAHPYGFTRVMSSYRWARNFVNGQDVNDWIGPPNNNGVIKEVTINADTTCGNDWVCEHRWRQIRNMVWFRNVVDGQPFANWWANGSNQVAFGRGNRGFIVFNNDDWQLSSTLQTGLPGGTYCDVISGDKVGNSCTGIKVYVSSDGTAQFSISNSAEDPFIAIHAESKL
# Method: as §1
# [7] = biological target: T2, α-glucosidase specimen derived from rice (Oryza sativa subsp. japonica, UniProt Q653V7); experiment: Hydrolysis by α-glucosidase; assay type: biochemical; conditions: 50 mM acetate buffer pH 4.0, 37° C., 18 hours
# T2 construct: purchased Sigma Chemical Company, St. Louis, USA; host or cells: rice
# T2 sequence (Q653V7 34-885): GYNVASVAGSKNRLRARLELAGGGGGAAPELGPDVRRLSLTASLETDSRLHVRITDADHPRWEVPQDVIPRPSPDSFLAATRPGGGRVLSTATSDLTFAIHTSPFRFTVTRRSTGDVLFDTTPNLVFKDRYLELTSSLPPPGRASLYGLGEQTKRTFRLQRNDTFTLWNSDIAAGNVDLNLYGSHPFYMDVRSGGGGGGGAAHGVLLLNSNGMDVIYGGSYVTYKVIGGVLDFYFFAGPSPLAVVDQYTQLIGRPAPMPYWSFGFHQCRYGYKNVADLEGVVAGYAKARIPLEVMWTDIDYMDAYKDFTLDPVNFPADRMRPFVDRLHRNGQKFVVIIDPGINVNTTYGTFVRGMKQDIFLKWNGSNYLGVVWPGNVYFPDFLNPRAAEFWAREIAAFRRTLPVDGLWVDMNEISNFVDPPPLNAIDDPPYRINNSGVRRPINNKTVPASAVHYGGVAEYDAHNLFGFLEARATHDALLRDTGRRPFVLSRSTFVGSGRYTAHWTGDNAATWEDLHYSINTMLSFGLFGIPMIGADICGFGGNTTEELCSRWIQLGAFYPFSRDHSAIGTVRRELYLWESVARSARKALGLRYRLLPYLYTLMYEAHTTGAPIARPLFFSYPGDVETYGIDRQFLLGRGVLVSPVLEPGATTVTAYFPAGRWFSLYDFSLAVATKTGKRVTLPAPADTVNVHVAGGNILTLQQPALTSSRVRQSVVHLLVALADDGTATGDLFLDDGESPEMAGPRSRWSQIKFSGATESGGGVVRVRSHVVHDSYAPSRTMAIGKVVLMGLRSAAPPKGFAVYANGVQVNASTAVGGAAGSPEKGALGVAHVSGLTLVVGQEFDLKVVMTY
# Method: as §1
# glucoamylase = experiment: Enzymatic hydrolysis by glucoamylase; assay type: biochemical; conditions: for Glucose / Trehalose: 50 mg in 1 ml 50 mM acetate buffer pH 4.5, one unit glucoamylase, 40° C., 6 hours, HPLC; for Molecular ratio (Glucose/Trehalose): glucoamylase hydrolysate
# Method: Fifty mg aliquots of non-reducing saccharides P I, P II, P III, P IV and P V in Experiment 4 were respectively dissolved in one ml of 50 mM acetate buffer (pH 4.5), admixed with one unit of glucoamylase commercialized by Seikagaku-Kogyo Co., Ltd., Tokyo, Japan, to effect enzymatic hydrolysis at 40° C. for 6 hours. The only saccharides detected in every resultant mixture on HPLC analysis were glucose and trehalose.
smiles,measurement,setting,value
OC[C@H]1O[C@H](O[C@H]2[C@H](O)[C@@H](O)[C@@H](O[C@H]3[C@H](O)[C@@H](O)[C@@H](O[C@H]4[C@H](O)[C@@H](O)[C@@H](O[C@H]5[C@H](O)[C@@H](O)C(O)O[C@@H]5CO)O[C@@H]4CO)O[C@@H]3CO)O[C@@H]2CO)[C@H](O)[C@@H](O)[C@@H]1O (some centres unmarked) [Maltopentaose],Coloration degree (480 nm),[1],0.369
same,Percentage of newly-formed saccharide (P I to P V) in reaction product,[2],92.7%
same,Percentage of remaining substrate in reaction product,[2],7.3%
same,Initial reducing power that diminishes by the enzymatic reaction,[2]; substrate of the present enzyme,about 93%
OC[C@H]1O[C@H](O[C@H]2[C@H](O)[C@@H](O)[C@@H](O[C@H]3[C@H](O)[C@@H](O)C(O)O[C@@H]3CO)O[C@@H]2CO)[C@H](O)[C@@H](O)[C@@H]1O (some centres unmarked) [Maltotriose],Coloration degree (480 nm),[1],0.623
same,Percentage of newly-formed saccharide (P I to P V) in reaction product,[2],35.0%
same,Percentage of remaining substrate in reaction product,[2],65.0%
OC[C@H]1O[C@H](O[C@H]2[C@H](O)[C@@H](O)[C@@H](O[C@H]3[C@H](O)[C@@H](O)[C@@H](O[C@H]4[C@H](O)[C@@H](O)[C@@H](O[C@H]5[C@H](O)[C@@H](O)[C@@H](O[C@H]6[C@H](O)[C@@H](O)[C@@H](O[C@H]7[C@H](O)[C@@H](O)C(O)O[C@@H]7CO)O[C@@H]6CO)O[C@@H]5CO)O[C@@H]4CO)O[C@@H]3CO)O[C@@H]2CO)[C@H](O)[C@@H](O)[C@@H]1O (some centres unmarked) [Maltoheptaose],Coloration degree (480 nm),[1],0.271
same,Percentage of newly-formed saccharide (P I to P V) in reaction product,[2],93.4%
same,Percentage of remaining substrate in reaction product,[2],6.7%
OC[C@H]1O[C@H](O[C@H]2O[C@H](CO)[C@@H](O[C@H]3O[C@H](CO)[C@@H](O[C@H]4O[C@H](CO)[C@@H](O[C@H]5O[C@H](CO)[C@@H](O)[C@H](O)[C@H]5O)[C@H](O)[C@H]4O)[C@H](O)[C@H]3O)[C@H](O)[C@H]2O)[C@H](O)[C@@H](O)[C@@H]1O [Example A-5],DE of product,[3]; products of Examples A,lower than 0.2
OC[C@H]1O[C@H](O[C@H]2[C@H](O)[C@@H](O)[C@@H](O[C@H]3[C@H](O)[C@@H](O)[C@@H](O[C@H]4[C@H](O)[C@@H](O)C(O)O[C@@H]4CO)O[C@@H]3CO)O[C@@H]2CO)[C@H](O)[C@@H](O)[C@@H]1O (some centres unmarked) [Maltotetraose],Coloration degree (480 nm),[1],0.475
same,Percentage of newly-formed saccharide (P I to P V) in reaction product,[2],85.6%
same,Percentage of remaining substrate in reaction product,[2],14.4%
OC[C@H]1O[C@H](O[C@H]2[C@H](O)[C@@H](O)C(O)O[C@@H]2CO)[C@H](O)[C@@H](O)[C@@H]1O (mixture of isomers) [Maltose],Formation of novel saccharide from substrate,[2],no novel saccharide was formed
same,Percentage of remaining substrate in reaction product,[2],100.0%
"OC[C@H]1O[C@H](O[C@H]2O[C@H](CO)[C@@H](O[C@H]3O[C@H](CO)[C@@H](O)[C@H](O)[C@H]3O)[C@H](O)[C@H]2O)[C@H](O)[C@@H](O)[C@@H]1O [P I, α-glucosyl trehalose]",Death of mice,[4],no mouse died
same,DE,[3],0.83
same,Coloration degree (480 nm),[1],0.027
same,Coloration degree relative to corresponding material maltooligosaccharide,[1],3-6%
same,Saccharide composition of hydrolysate with rat intestinal acetone powder: Glucose,[5],37.2%
same,Saccharide composition of hydrolysate with rat intestinal acetone powder: Other saccharides,[5],0.4%
same,Saccharide composition of hydrolysate with rat intestinal acetone powder: Trehalose,[5],62.4%
same,Hydrolysis by β-amylase,β-amylase,not hydrolyzed
same,Hydrolysis by α-amylase,[6],not substantially hydrolyzed
same,Saccharide composition of hydrolysate: G1 (glucose),[6],0
same,Saccharide composition of hydrolysate: G2 (maltose),[6],0.4
same,Saccharide composition of hydrolysate: G3 (maltotriose),[6],2.3
same,Saccharide composition of hydrolysate: P I,[6],97.3
same,Saccharide composition of hydrolysate: P II,[6],0
same,Saccharide composition of hydrolysate with α-glucosidase: Glucose,[7],36.5%
same,Saccharide composition of hydrolysate with α-glucosidase: Other saccharides,[7],0.5%
same,Saccharide composition of hydrolysate with α-glucosidase: Trehalose,[7],63.0%
same,Glucose,glucoamylase,36.2%
same,Trehalose,glucoamylase,63.8%
same,Molecular ratio (Glucose/Trehalose),glucoamylase,1.07
"OC[C@H]1O[C@H](O[C@H]2O[C@H](CO)[C@@H](O[C@H]3O[C@H](CO)[C@@H](O[C@H]4O[C@H](CO)[C@@H](O[C@H]5O[C@H](CO)[C@@H](O[C@H]6O[C@H](CO)[C@@H](O)[C@H](O)[C@H]6O)[C@H](O)[C@H]5O)[C@H](O)[C@H]4O)[C@H](O)[C@H]3O)[C@H](O)[C@H]2O)[C@H](O)[C@@H](O)[C@@H]1O [P IV, α-maltotetraosyl trehalose]",LD50,"[4]; mouse, in vivo, po",≥ 50000 mg/kg
same,Death of mice,[4],no mouse died
same,DE,[3],0.27
same,Coloration degree (480 nm),[1],0.016
same,Coloration degree relative to corresponding material maltooligosaccharide,[1],3-6%
same,Saccharide composition of hydrolysate with rat intestinal acetone powder: Glucose,[5],68.8%
same,Saccharide composition of hydrolysate with rat intestinal acetone powder: Other saccharides,[5],0.4%
same,Saccharide composition of hydrolysate with rat intestinal acetone powder: Trehalose,[5],30.8%
same,Hydrolysis by β-amylase,β-amylase,one mole of maltose and one mole of P II
same,Hydrolysis by α-amylase,[6],hydrolyzed by α-amylase into lower molecular weight oligosaccharides
same,Saccharide composition of hydrolysate: G1 (glucose),[6],1.6
same,Saccharide composition of hydrolysate: G2 (maltose),[6],7.5
same,Saccharide composition of hydrolysate: G3 (maltotriose),[6],40.4
same,Saccharide composition of hydrolysate: P I,[6],47.2
same,Saccharide composition of hydrolysate: P II,[6],3.3
same,Saccharide composition of hydrolysate with α-glucosidase: Glucose,[7],69.5%
same,Saccharide composition of hydrolysate with α-glucosidase: Other saccharides,[7],0.3%
same,Saccharide composition of hydrolysate with α-glucosidase: Trehalose,[7],30.2%
same,Glucose,glucoamylase,68.3%
same,Trehalose,glucoamylase,31.7%
same,Molecular ratio (Glucose/Trehalose),glucoamylase,4.09
OC[C@H]1OC(O)[C@H](O)[C@@H](O)[C@@H]1O (some centres unmarked) [Glucose],Formation of novel saccharide from substrate,[2],no novel saccharide was formed
same,Percentage of remaining substrate in reaction product,[2],100.0%
OC[C@H]1O[C@H](O[C@H]2[C@H](O)[C@@H](O)[C@@H](O[C@H]3[C@H](O)[C@@H](O)[C@@H](O[C@H]4[C@H](O)[C@@H](O)[C@@H](O[C@H]5[C@H](O)[C@@H](O)[C@@H](O[C@H]6[C@H](O)[C@@H](O)C(O)O[C@@H]6CO)O[C@@H]5CO)O[C@@H]4CO)O[C@@H]3CO)O[C@@H]2CO)[C@H](O)[C@@H](O)[C@@H]1O (some centres unmarked) [Maltohexaose],Coloration degree (480 nm),[1],0.318
same,Percentage of newly-formed saccharide (P I to P V) in reaction product,[2],93.5%
same,Percentage of remaining substrate in reaction product,[2],6.5%
